{"source": "ChEMBL document CHEMBL3886943", "about": "“C2-azaspiro iminothiazine dioxides as BACE inhibitors, compositions, and their use” (2016)", "key": {"Beta-secretase 2": {"target": "T1, Beta-secretase 2 (Homo sapiens, UniProt Q9Y5Z0)", "T1 sequence (Q9Y5Z0 whole entry)": "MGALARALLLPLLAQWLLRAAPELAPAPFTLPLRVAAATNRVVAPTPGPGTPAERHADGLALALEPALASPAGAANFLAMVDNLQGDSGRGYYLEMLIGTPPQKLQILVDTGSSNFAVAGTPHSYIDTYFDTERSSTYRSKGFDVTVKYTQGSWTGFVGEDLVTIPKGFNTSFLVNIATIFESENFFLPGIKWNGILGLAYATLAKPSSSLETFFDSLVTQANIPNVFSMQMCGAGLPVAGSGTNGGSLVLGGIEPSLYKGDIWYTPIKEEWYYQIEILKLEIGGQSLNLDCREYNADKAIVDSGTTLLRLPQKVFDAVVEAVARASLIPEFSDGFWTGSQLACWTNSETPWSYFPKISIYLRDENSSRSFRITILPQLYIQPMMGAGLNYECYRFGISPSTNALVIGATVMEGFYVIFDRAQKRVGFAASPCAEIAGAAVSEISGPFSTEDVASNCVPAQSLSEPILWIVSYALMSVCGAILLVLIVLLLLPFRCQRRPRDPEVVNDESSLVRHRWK", "test": "DMSO is present at 5% final concentration in the assay. Following laser excitation of sample wells at 320 nm, the fluorescence signal at 620 nm is collected for 400 ms following a 50 us delay on a RUBYstar HTRF plate reader (BMG Labtechnologies). Raw RFU data is normalized to maximum (1.0 nM BACE/DMSO) and minimum (no enzyme/DMSO) RFU values. […] The Ki values are calculated from the IC50 using the Cheng-Prusoff equation."}, "Beta-secretase 1": {"target": "Beta-secretase 1 (Homo sapiens, UniProt P56817)", "sequence (P56817 whole entry)": "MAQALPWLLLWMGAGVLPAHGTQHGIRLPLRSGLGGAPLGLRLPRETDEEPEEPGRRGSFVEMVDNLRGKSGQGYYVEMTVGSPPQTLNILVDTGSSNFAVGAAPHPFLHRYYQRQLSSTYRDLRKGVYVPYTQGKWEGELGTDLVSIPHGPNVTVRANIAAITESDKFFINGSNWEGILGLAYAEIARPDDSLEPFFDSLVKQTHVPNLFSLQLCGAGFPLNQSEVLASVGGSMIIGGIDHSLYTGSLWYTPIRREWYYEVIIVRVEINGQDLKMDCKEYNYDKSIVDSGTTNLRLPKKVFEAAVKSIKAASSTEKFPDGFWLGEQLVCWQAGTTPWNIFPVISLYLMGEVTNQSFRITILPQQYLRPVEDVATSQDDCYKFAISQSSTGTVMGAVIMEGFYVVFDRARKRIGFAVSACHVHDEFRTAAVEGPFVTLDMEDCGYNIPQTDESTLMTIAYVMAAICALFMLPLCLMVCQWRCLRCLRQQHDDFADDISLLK", "test": "This assay monitors the increase of 620 nm fluorescence that resulted from BACE1 cleavage of an APPswedish APPswe mutant peptide FRET substrate (QSY7-[…]-Europium-amide). This substrate contains an N-terminal QSY7 moiety that serves as a quencher of the C-terminal Europium fluorophore (620 nm Em). […] Reactions are initiated by addition of 10 ul of 600 nM QSY7-APPswe-Eu substrate (200 nM final) to give a final reaction volume of 30 ul in a 384 well Nunc HTRF plate. The reactions are incubated at 30° C. for 1.5 hours. The 620 nm fluorescence is then read on a Rubystar HTRF plate reader (BMG Labtechnologies) using a 50 millisecond delay followed by a 400 millisecond acquisition time window. Inhibitor IC50 values are derived from non-linear regression analysis of concentration response curves."}}}
{"smiles": "CN1CCC2(CC1)C(=N)N[C@](C)(c1cc(NC(=O)C(F)F)ccc1F)CS2(=O)=O", "values": [{"measurement": "Ki", "setting": "Beta-secretase 2", "result": 0.21, "unit": "µM"}, {"measurement": "Ki", "setting": "Beta-secretase 1", "result": 1.71, "unit": "µM"}]}
